This assay has as its system HIV-1 (H9IIIB strain). In words: Cell-Based HIV Infection Assay Using a Reporter (MT4-GFP cells). The conditions noted are these: Human immunodeficiency virus 1, inflection point (IP) of viral growth inhibition; MT4-GFP cells infected with HIV-1 H9IIIB; 50% normal human serum; mean of at least two independent experiments; read-out: Cell Based IP (50% NHS). In a few lines: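 Inflection point from a 4-parameter curve of % viral growth inhibition, normalised to DMSO and triple-drug controls, using the 48 h/24 h ratio of GFP-positive cells (R0). MT4-GFP cells pre-infected 24 h with HIV-1 H9IIIB at low MOI; compounds tested in 50% normal human serum, 0.4% DMSO; mean of ≥2 experiments.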
Consider `COC(=O)N[C@@H](C(=O)N[C@H]1CCC[C@@H]1CC[C@H]1CN[C@@H]2CCCS(=O)(=O)N1C2)[C@@H](c1ccc(Cl)cc1)C1CCN(C(=O)OC2(C)CC2)CC1` [Example 138, 1-methylcyclopropyl 4-{(1R,2R)-1-(4-chlorophenyl)-3-{[(1S,2R)-2-{2-[(6R,9S)-2,2-dioxido-2-thia-1,7-diazabicyclo[4.3.1]dec-9-yl]ethyl}cyclopentyl]amino}-2-[(methoxycarbonyl)amino]-3-oxopropyl}piperidine-1-carboxylate], for which the EC50 turned out to be 490 nM. `N[C@H](C(=O)Nc1cc(F)cc(F)c1CC[C@H]1CN[C@@H]2CCCS(=O)(=O)N1C2)[C@@H](c1ccc(Cl)cc1)C1CCOCC1` [Example 143, (βR)-4-chloro-N-(2-{2-[(6R,9S)-2,2-dioxido-2-thia-1,7-diazabicyclo[4.3.1]dec-9-yl]ethyl}-3,5-difluorophenyl)-β-(tetrahydro-2H-pyran-4-yl)-L-phenylalaninamide]: the EC50 was 77 nM.

Regarding `COC(=O)N[C@H](C(=O)Nc1cc(F)cc(F)c1CC[C@H]1CN[C@@H]2CCCS(=O)(=O)N1C2)[C@@H](c1ccc(Cl)cc1)C1CCOCC1` [Example 144, methyl [(1S,2R)-2-(4-chlorophenyl)-1-[(2-{2-[(6R,9S)-2,2-dioxido-2-thia-1,7-diazabicyclo[4.3.1]dec-9-yl]ethyl}-3,5-difluorophenyl)carbamoyl]-2-(tetrahydro-2H-pyran-4-yl)ethyl]carbamate], the EC50 worked out at 21 nM. As to `N[C@H](C(=O)N[C@H]1CCCC[C@@H]1CC[C@H]1CN[C@@H]2CCCS(=O)(=O)N1C2)[C@H](c1cncc(F)c1)c1ccc(Cl)c(F)c1` [Example 145, (βS)-4-chloro-N-[(1S,2R)-2-{2-[(6R,9S)-2,2-dioxido-2-thia-1,7-diazabicyclo[4.3.1]dec-9-yl]ethyl}cyclohexyl]-3-fluoro-β-(5-fluoropyridin-3-yl)-L-phenylalaninamide], the EC50 came out at 76 nM. As for `C[C@@H]1C[C@H]([C@H](c2ccc(F)cc2)[C@H](N)C(=O)Nc2c(F)ccc(F)c2CC[C@H]2CN[C@@H]3CCCS(=O)(=O)N2C3)C[C@H](C)O1` [Example 146, (βR)-β-[(2R,4r,6S)-2,6-dimethyltetrahydro-2H-pyran-4-yl]-N-(2-{2-[(6R,9S)-2,2-dioxido-2-thia-1,7-diazabicyclo[4.3.1]dec-9-yl]ethyl}-3,6-difluorophenyl)-4-fluoro-L-phenylalaninamide], the EC50 was determined as 25 nM. With `COC(=O)N[C@H](C(=O)Nc1c(F)ccc(F)c1CC[C@H]1CN[C@@H]2CCCS(=O)(=O)N1C2)[C@@H](c1ccc(F)cc1)[C@H]1C[C@@H](C)O[C@@H](C)C1` [Example 147, methyl [(1S,2R)-2-[(2R,4r,6S)-2,6-dimethyltetrahydro-2H-pyran-4-yl]-1-[(2-{2-[(6R,9S)-2,2-dioxido-2-thia-1,7-diazabicyclo[4.3.1]dec-9-yl]ethyl}-3,6-difluorophenyl)carbamoyl]-2-(4-fluorophenyl)ethyl]carbamate], the EC50 stood at 22 nM. With `CC1(C)C[C@@H]([C@H](c2ccc(F)cc2)[C@H](N)C(=O)N[C@H]2CCCC[C@@H]2CC[C@H]2CN[C@@H]3CCCS(=O)(=O)N2C3)CCO1` [Example 148, (βR)-β-[(4S)-2,2-dimethyhetrahydro-2H-pyran-4-yl]-N-[(1S,2R)-2-{2-[(6R,9S)-2,2-dioxido-2-thia-1,7-diazabicyclo[4.3.1]dec-9-yl]ethyl}cyclohexyl]-4-fluoro-L-phenylalaninamide], the EC50 was found to be 160 nM.

Take `C[C@@H]1C[C@H]([C@H](c2ccc(F)cc2)[C@H](N)C(=O)N[C@H]2CCCC[C@@H]2CC[C@H]2CN[C@@H]3CCCS(=O)(=O)N2C3)C[C@H](C)O1` [Example 149, (βR)-β-[(2R,4r,6S)-2,6-dimelhyltclrahydro-2H-pyran-4-yl]-N-[(1S,2R)-2-{2-[(6R,9S)-2,2-dioxido-2-thia-1,7-diazabicyclo[4.3.1]dec-9-yl]ethyl}cyclohexyl]-4-fluoro-L-phenylalaninamide]: the EC50 came out at 97 nM.

These data come from patent US10138255B2, “Piperazine derivatives as HIV protease inhibitors” (Merck Sharp & Dohme Corp., priority 2014, dated 2018).
